Experimental findings from patent US8143259B2, “Cold menthol receptor antagonists” (Janssen Pharmaceutica, NV, priority 2008, dated 2012) are described below.

Values joined by “and” are separate entries in the source; they are usually repeats but may differ in a detail not shown here. Equal entries are not always repeated.

Broadly, the IC50 is the concentration at which inhibition is half-maximal. Low readings indicate greater potency in that assay, high ones weaker potency in that assay. One may read the inhibition as the relative decrease from the control value, in per cent.

This assay concerns the target T1, canine TRPM8 (Canis lupus familiaris, UniProt Q1A7N1).
T1 construct: expressed in transfected cells
The experiment in a line: In Vitro Canine TRPM8 Functional Assay (Ca2+ fluorescence, icilin activation). Conditions: for % Inh @ 1 μM: 1 μM compound; for % Inh @ 1 μM / inhibition at 0.5 µM / inhibition at 1 µM / % Inh @ 0.2 μM / inhibition at 0.2 µM / % Inh @ 0.5 μM: canine TRPM8 HEK293, icilin; for IC50: HEK293 cells stably expressing canine TRPM8, icilin activation, Ca2+ fluorescence; for inhibition at 0.5 µM: HEK293, 0.5 μM compound; for inhibition at 1 µM: HEK293, 1 μM compound; for % Inh @ 0.2 μM: 0.2 μM compound; for inhibition at 0.2 µM: HEK293, 0.2 μM compound; for % Inh @ 0.5 μM: 0.5 μM compound. It is filed as cell-based. The method, then:
The functional activity of compounds of the formula (I) was determined by measuring changes in intracellular calcium concentration using a Ca^2+-sensitive fluorescent dye. The changes in fluorescent signal were monitored by a fluorescence plate reader, either a FLIPR™ (Molecular Devices) or FDSS (Hamamatsu). Increases in intracellular Ca^2+ concentration were readily detected upon activation with icilin.
HEK293 cells stably expressing canine TRPM8 were routinely grown as monolayers in Dulbecco's minimum essential medium supplemented with 10% FBS, 2 mM L-glutamine, 100 units/mL penicillin, 100 ug/mL streptomycin and 400 μg/mL G418. Cells were maintained in 5% CO2 at 37° C. At 24 hrs prior to assay, cells were seeded in black wall, clear-base poly-D-lysine coated 384-well plates (BD Biosciences, NJ, USA) at a density of 5,000 cells per well in culture medium and grown overnight in 5% CO2 at 37° C. On assay day, growth media was removed and cells were loaded with Calcium 3 Dye (Molecular Devices) for 35 min at 37° C., under 5% CO2 and then for 25 min at room temperature and atmosphere. Subsequently, cells were tested for agonist-induced increases in intracellular Ca^2+ levels using FLIPR™ or FDSS. Cells were challenged with compounds of the formula (I) (at varying concentrations) and intracellular Ca^2+ was measured for 5 min prior to the addition of icilin to all wells to achieve a final concentration that produces approximately an 80% maximal response.
Maximal fluorescence intensity (FI) achieved upon addition of icilin was exported from the FLIPR or FDSS software and further analyzed using GraphPad Prism 3.02 (Graph Pad Software Inc., CA, U.S.A.). Basal FI was subtracted prior to normalizing data to percent of maximal response. Curves were generated using the average of quadruplicate wells for each data point, were analyzed using nonlinear regression of either sigmoidal dose response or sigmoidal dose response (variable slope).

T1 sequence (Q1A7N1 1-1104): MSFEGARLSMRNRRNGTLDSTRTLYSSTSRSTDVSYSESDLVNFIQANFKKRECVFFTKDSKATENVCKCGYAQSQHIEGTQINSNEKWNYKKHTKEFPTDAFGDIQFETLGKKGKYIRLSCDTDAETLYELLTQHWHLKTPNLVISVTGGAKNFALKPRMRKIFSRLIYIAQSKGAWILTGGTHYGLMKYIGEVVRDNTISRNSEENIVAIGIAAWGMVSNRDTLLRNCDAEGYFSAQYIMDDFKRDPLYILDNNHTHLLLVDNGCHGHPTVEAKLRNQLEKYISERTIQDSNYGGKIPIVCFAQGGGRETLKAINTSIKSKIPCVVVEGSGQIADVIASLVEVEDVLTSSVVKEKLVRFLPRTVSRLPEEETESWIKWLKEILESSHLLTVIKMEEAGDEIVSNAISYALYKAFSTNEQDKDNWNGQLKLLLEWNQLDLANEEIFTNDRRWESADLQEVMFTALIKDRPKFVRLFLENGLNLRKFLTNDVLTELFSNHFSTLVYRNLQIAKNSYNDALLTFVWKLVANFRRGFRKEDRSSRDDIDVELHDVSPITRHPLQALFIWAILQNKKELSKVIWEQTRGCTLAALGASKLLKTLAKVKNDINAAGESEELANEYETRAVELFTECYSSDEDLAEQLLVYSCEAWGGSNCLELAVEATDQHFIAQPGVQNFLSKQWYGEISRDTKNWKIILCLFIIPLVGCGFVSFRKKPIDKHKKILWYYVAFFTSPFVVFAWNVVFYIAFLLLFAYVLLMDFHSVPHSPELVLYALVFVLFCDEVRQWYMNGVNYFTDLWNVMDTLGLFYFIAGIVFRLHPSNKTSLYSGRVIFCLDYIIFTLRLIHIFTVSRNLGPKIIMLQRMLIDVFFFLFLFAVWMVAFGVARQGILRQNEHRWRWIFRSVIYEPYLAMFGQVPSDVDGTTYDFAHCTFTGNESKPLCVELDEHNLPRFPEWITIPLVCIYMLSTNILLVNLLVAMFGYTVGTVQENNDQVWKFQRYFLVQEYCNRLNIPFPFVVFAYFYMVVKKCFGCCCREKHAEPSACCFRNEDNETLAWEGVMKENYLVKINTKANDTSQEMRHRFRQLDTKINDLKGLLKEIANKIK

`CC(C)(C)c1ccc(C(Nc2ccccc2)C(=O)N2CCCC2c2ccc(Cl)cc2)cc1` (single isomer, unassigned) [Cpd 367] had an IC50 of 149 ± 51 nM. In addition, where the note is “1 µM”, the “% Inh @ 1 μM” value was determined as 5.8157%.
Turning to `O=C(C(Nc1ccccc1F)c1ccc(Br)cc1)N1CCCC1c1ccccc1Cl` (centres unmarked) [Cpd 89], the inhibition at 0.5 µM turned out to be 98% and the IC50 worked out at 20 nM.
In the case of `O=C(C(Nc1ccccc1)c1ccc(C(F)(F)F)cc1)N1CCCC1c1ccccc1F` (centres unmarked) [Cpd 20], the inhibition at 1 µM stood at 101% and the IC50 stood at 29.9 nM.
As for `O=C(C(Nc1ccccc1F)c1cncc2ccccc12)N1CCCC1c1ccccc1F` (single isomer, unassigned) [Cpd 333], the “% Inh @ 0.2 μM” value (0.2 µM) is recorded as 62%.
Consider `O=C(C(Nc1ccccc1F)c1ccc(-c2ccccn2)cc1)N1CCCC1c1ccccc1Cl` (single isomer, unassigned) [Cpd 338], for which the inhibition at 0.2 µM came to 101% and the concentration for half-maximal inhibition (IC50) worked out at 17 nM.
On to `O=C(C(Nc1c(F)cccc1F)c1ccc(Br)cc1)N1CCCC1c1ccccc1F` (single isomer, unassigned) [Cpd 161], for which the inhibition at 0.2 µM is 98%; the inhibition at 0.5 µM was 93%; the IC50 is 63 nM and 36 nM.
As to `N#Cc1ccc(C(Nc2ccccc2F)C(=O)N2CCCC2c2ccccc2Cl)cc1` (centres unmarked) [Cpd 62], the inhibition at 0.5 µM stood at 103% and the half-maximal inhibitory concentration (IC50) turned out to be 78 nM.
As for `O=C(C(Nc1ccccc1F)c1ccc2ncccc2c1)N1CCCC1c1ccccc1F` (centres unmarked) [Cpd 248], the inhibition at 0.2 µM worked out at 94% and the IC50 was 12.3 nM.
For the molecule `COc1ccccc1C1CCCN1C(=O)C(Nc1ccc(F)cc1F)c1ccc(Cl)cc1` (centres unmarked) [Cpd 124], the inhibition at 0.5 µM was 98% and inhibition was half-maximal at 81.7 nM (IC50).
On the same counts, the results for `CC(C)(C)c1ccc(C(Nc2ccccc2)C(=O)N2CCCC2c2ccncc2)cc1` (centres unmarked) [Cpd 53] are 99% and 53.8 nM.
Turning to `O=C(C(Nc1ccc(F)cc1)c1ccc(C(F)(F)F)cc1)N1CCCC1c1ccccc1Cl` (centres unmarked) [Cpd 74], the inhibition at 0.5 µM was 98% and the IC50 stood at 73 nM.
Take `O=C(C(Nc1ccccc1F)c1ccc(C(F)(F)F)cc1)N1CCCC1c1ccccc1` (single isomer, unassigned) [Cpd 190]: the inhibition at 0.2 µM came to 89% and half-maximal inhibition (IC50) required 85 nM.
On the same counts, the results for `O=C(C(Nc1ccccc1F)c1ccc(Cl)cc1)N1CCCc2ccccc21` (centres unmarked) [Cpd 364] are 91% and 36 nM.
`O=C(C(Nc1ccccc1F)c1ccc(Cl)cc1)N1CCCC1c1ccccc1F` (centres unmarked) [Cpd 115]: the inhibition at 0.5 µM stood at 97% and the concentration for half-maximal inhibition (IC50) turned out to be 10.1 nM.
For `O=C(C(Nc1ccccc1)c1ccc(Cl)cc1)N1CCCC1c1ccccc1Cl` (centres unmarked) [Cpd 84], the inhibition at 0.5 µM worked out at 98% and the IC50 turned out to be 15 nM.
In the case of `CCOC(=O)c1ccc(C(Nc2c(F)cccc2F)C(=O)N2CCC[C@H]2c2ccccc2F)cc1` (stereo partly drawn) [Cpd 183, 4-{1-(2,6-Difluoro-phenylamino)-2-[(2S)-2-(2-fluoro-phenyl)-pyrrolidin-1-yl]-2-oxo-ethyl}-benzoic acid ethyl ester], the inhibition at 0.2 µM was 99% and the IC50 is 10 nM.
Consider `CC(C)(C)c1ccc(C(Nc2ccccc2)C(=O)N2CCCC2c2ccccn2)cc1` (centres unmarked) [Cpd 55], for which the inhibition at 0.5 µM was found to be 99.9% and the IC50 was determined as 207 nM.
For the molecule `O=C(C(Nc1ccccc1)c1cccnc1)N1Cc2ccccc2C1` (racemic) [Cpd 215], the “% Inh @ 0.2 μM” value worked out at 18%.
For the molecule `COc1ccc(C(Nc2ccccc2)C(=O)N2CCCC2c2ccccc2Cl)cc1` (centres unmarked) [Cpd 66], the inhibition at 0.5 µM was 102% and the half-inhibitory concentration (IC50) turned out to be 28 nM.
Take `CC(C)(C)c1ccc(C(Nc2ccccc2F)C(=O)N2CCCC2c2ccccc2F)cn1` (single isomer, unassigned) [Cpd 356]: the “% Inh @ 0.2 μM” value was determined as 57%.
With `O=C(C(Nc1ccccc1)c1ccc(C(F)(F)F)cc1)N1CCCC1c1cccnc1` (centres unmarked) [Cpd 19], the inhibition at 1 µM turned out to be 100% and the 50% inhibitory concentration (IC50) stood at 282 nM.
For `O=C(C(Nc1ccccc1F)c1ccc(C(F)(F)F)cc1)N1CCCC1c1cccnc1` (centres unmarked) [Cpd 203], the inhibition at 0.2 µM stood at 102% and the IC50 amounted to 7 nM.
For the molecule `O=C(C(Nc1ccccc1F)c1ccc(C(F)(F)F)cc1)N1CCCC1c1cccc(F)c1` (centres unmarked) [Cpd 132], the inhibition at 0.5 µM worked out at 99% and inhibition was half-maximal at 9 nM (IC50).
Turning to `O=C(C(Nc1ccccc1)c1ccc(Cl)cc1)N1Cc2ccccc2C1` (centres unmarked) [Cpd 87], the inhibition at 0.5 µM turned out to be 97% and inhibition was half-maximal at 81 nM (IC50).
With `CC(C)(C)c1ccc(C(Nc2ccccc2)C(=O)N2CCCC2Cc2ccccc2Cl)cc1` (mixture of isomers) [Cpd 6], the “% Inh @ 1 μM” value was 45.171%.
In the case of `O=C(C(Nc1ccccc1F)c1ccc(-c2ccccn2)cc1)N1CCCC1c1ccccc1F` (single isomer, unassigned) [Cpd 297], the IC50 is 65 nM and 69 nM. Also, for the setting “0.2 µM”, the “% Inh @ 0.2 μM” value was 85% and 87%.
As to `O=C(C(Nc1ccccc1F)c1ccc(Cl)cc1)N1CCCC1c1ccccc1F` (single isomer, unassigned) [Cpd 157], the inhibition at 0.5 µM amounted to 93% and the midpoint of inhibition, the IC50, lay at 146 nM.
Turning to `COC(=O)C1CCC(c2ccccc2)N1C(=O)C(Nc1c(F)cccc1F)c1ccc(Br)cc1` (centres unmarked) [Cpd 211], the “% Inh @ 0.2 μM” value (0.2 µM) worked out at 69%.
Turning to `COc1ccccc1C1CCCN1C(=O)C(Nc1ccccc1F)c1ccc(Br)cc1` (single isomer, unassigned) [Cpd 175], the inhibition at 0.2 µM was determined as 85% and it took 69 nM to reach half-maximal inhibition (IC50).
As for `O=C(C(Nc1cccc(F)c1F)c1ccc(Cl)cc1)N1CCCC1c1ccccc1Cl` (single isomer, unassigned) [Cpd 166], the “% Inh @ 0.5 μM” value turned out to be 96% and half-maximal inhibition (IC50) was put at 61 nM.
With `O=C(C(Nc1ccccc1F)c1ccc(C(F)(F)F)cc1)N1CCCC1c1cccc(F)c1` (single isomer, unassigned) [Cpd 133], the inhibition at 0.5 µM was 98% and the 50% inhibitory concentration (IC50) turned out to be 20.9 nM.
For the molecule `O=C(C(Nc1ccccc1F)c1ccc(Cl)cc1)N1Cc2ccccc2C1` (centres unmarked) [Cpd 113], the inhibition at 0.5 µM is 98% and 61.7 nM corresponded to half-maximal inhibition (IC50).
With `COC(=O)C1CCC(c2ccccc2)N1C(=O)C(Nc1c(F)cccc1F)c1ccc(Br)cc1` (centres unmarked) [Cpd 210], the inhibition at 0.2 µM was determined as 99% and it took 7 nM to reach half-maximal inhibition (IC50).
On to `O=C(C(Nc1ccccc1F)c1ccc(Br)cc1)N1Cc2ccccc2C1` (centres unmarked) [Cpd 92], for which the inhibition at 0.5 µM is 98% and the IC50 worked out at 89 nM.
On the same counts, the results for `COc1ccc(NC(C(=O)N2CCCC2c2ccccc2Cl)c2ccc(Cl)cc2)cc1` (centres unmarked) [Cpd 136] are 90% and 193 nM.
As to `O=C(C(Nc1ccccc1F)c1ccc(N2CCOCC2)cc1)N1CCCC1c1ccccc1F` (centres unmarked) [Cpd 293], the inhibition at 0.2 µM stood at 86% and the IC50 was 11 nM.
Molecule `O=C(C(Nc1ccccc1F)c1ccc(C(F)(F)F)cc1)N1CCCC1c1cncc(Br)c1` (single isomer, unassigned) [Cpd 346] had an IC50 of 38 nM. Further, the “% Inh @ 0.2 μM” value (0.2 µM) amounted to 97%.
With `CC(C)(C)c1ccc(C(Nc2ccccc2F)C(=O)N2CCC[C@H]2c2ccccc2F)cn1` (single isomer, unassigned) [Cpd 357], the inhibition at 0.2 µM was determined as 100% and the midpoint of inhibition, the IC50, lay at 3 nM.
Turning to `O=C(C(Nc1cccc(F)c1F)c1ccc(Cl)cc1)N1CCCC1c1ccccc1F` (single isomer, unassigned) [Cpd 164], the “% Inh @ 0.5 μM” value is on record as 96% and half-maximal inhibition (IC50) required 26 nM.
Consider `CC(C)(C)c1ccc(C(Nc2ccccc2)C(=O)N2CCCCC2c2ccccc2)cc1` (centres unmarked) [Cpd 11], for which the inhibition at 1 µM was 103% and the IC50 was 172 nM.
Consider `O=C(O)c1ccc(-c2ccc(C(Nc3ccccc3F)C(=O)N3CCCC3c3ccccc3F)cc2)cc1` (mixture of isomers) [Cpd 337], for which the IC50 stood at 56 nM. In addition, the “% Inh @ 0.2 μM” value (0.2 µM) worked out at 91%.
In the case of `O=C(C(Nc1ccccc1F)c1ccc2cccnc2c1)N1CCCC1c1ccccc1F` (centres unmarked) [Cpd 284], the inhibition at 0.2 µM was found to be 92%; the half-inhibitory concentration (IC50) is 20 nM and 26 nM. Further, the “% Inh @ 0.2 μM” value (0.2 µM) was 95%.
As to `COc1ccccc1C1CCCN1C(=O)C(Nc1ccccc1)c1ccc(Cl)cc1` (centres unmarked) [Cpd 85], the inhibition at 0.5 µM was 97% and the IC50 amounted to 6 nM.
On to `O=C(C(CNc1ccccc1)c1ccc(C(F)(F)F)cc1)N1CCCC1c1ccccc1` (mixture of isomers) [Cpd 95], for which the “% Inh @ 0.5 μM” value is recorded as 67%.
Turning to `O=C(C(Nc1ccc(F)cc1)c1ccc(C(F)(F)F)cc1)N1CCCC1c1ccccc1` (single isomer, unassigned) [Cpd 75], the inhibition at 0.5 µM is 98% and half-maximal inhibition (IC50) required 20 nM.
